Test results taken from ChEMBL document CHEMBL1201862, “PubChem BioAssay data set” (2004).
Calls of active or inactive are those of the source.

Assays:
[1] = target: T1, Heat shock factor protein 1 (Mus musculus, UniProt P38532); assay: enhancement of HSF1-driven luciferase signal – cell-based, NIH3T3, luminescence, dose retest, confirmation (AID 435004); format: functional;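 further: stress induced by proteasome inhibitor MG132 added 30 min after compound; luciferase reporter driven by HSF1 response element in NIH3T3 cells; actives raise luminescence as potentiators of the MG132 stress response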
T1 sequence (P38532 whole entry): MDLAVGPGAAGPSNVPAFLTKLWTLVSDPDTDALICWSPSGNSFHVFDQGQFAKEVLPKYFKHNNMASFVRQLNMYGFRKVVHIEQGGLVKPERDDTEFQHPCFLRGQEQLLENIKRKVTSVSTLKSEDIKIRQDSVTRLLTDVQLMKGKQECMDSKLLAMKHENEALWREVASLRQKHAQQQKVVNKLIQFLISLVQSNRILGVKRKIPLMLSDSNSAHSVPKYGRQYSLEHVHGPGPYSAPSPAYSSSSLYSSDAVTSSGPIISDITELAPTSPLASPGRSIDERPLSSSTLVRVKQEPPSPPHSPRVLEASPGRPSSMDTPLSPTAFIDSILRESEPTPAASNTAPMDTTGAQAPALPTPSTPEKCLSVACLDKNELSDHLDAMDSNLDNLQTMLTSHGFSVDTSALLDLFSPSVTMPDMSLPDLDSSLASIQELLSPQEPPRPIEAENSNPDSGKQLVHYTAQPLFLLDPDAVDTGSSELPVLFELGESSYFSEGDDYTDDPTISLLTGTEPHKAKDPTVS

[2] = reduction of Shn3 3'UTR-driven luciferase in osteoblasts – cell-based, Clone20 osteoblasts, firefly luciferase, cherry-picked, dose response (AID 624132); format: functional;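 further: firefly luciferase luminescence from reporter carrying the Shn3 3'UTR in osteoblasts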
[3] = loss of viability in HepG2 cells – cell-based, CellTiter-Glo, cherry-picked, cytotoxicity control for Shn3 inhibitor project, dose response (AID 624134); format: functional
[4] = non-specific 3'UTR reporter inhibition in Clone20-Shn3RL – cell-based, Renilla luciferase, cherry-picked, counter-screen for Shn3 inhibitor project, dose response (AID 624133); format: functional
[5] = NIH-3T3 fibroblast cytotoxicity, dose response, cytotoxicity control, cell-based, fluorescence, Alamar Blue, secondary assay (AID 2327); format: functional;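 further: NIH-3T3 mouse fibroblasts cultured with fluconazole at 8 µg/mL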
[6] = fluconazole-exposed Candida albicans growth modulators – fluorescence, retest, confirmation (AID 2467); format: functional, cell-based
[7] = HPDE-C7 pancreatic duct cell viability loss – fluorescence, HTS (AID 430); format: functional, cell-based; conditions: Homo sapiens
[8] = viability loss of HPDE-C7K cells – cell-based, fluorescence, HTS, primary screen (AID 431); format: functional; conditions: Homo sapiens
[9] = Trypanosoma cruzi growth suppression in host cells – NIH3T3 host cells, beta-gal luminescence, confirmation (AID 2044); format: functional, cell-based;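 further: intracellular parasites grown in NIH/3T3 mouse fibroblasts as host cells; luminescent beta-galactosidase reporter signal from transgenic T. cruzi replicating inside host cells; inhibitors lower the luminescence signal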
[10] = microbe, parasite or virus in culture; format: functional; conditions: Mycobacterium tuberculosis
[11] = NIH3T3 cell viability loss – ATP luminescence, mouse fibroblasts, counter-screen, dose response (AID 2010); format: functional, cell-based;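 further: cells exposed to compound for about 90 hours before reading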
[12] = system: Streptococcus sp. 'group A'; assay: Streptococcus pyogenes SK(-)GAS viability under kanamycin – luminescence, BacTiterGlo, confirmation, counter-screen for streptokinase expression inhibitor project, dose response (AID 1900); format: functional, organism-based
Streptococcus = assay: GAS UMAA2166 growth inhibition – luminescence, BacTiterGlo, counter-screen for streptokinase expression inhibitor project, dose response (AID 1915); format: functional, organism-based;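 further: potency for reduction of bacterial viability or growth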
[13] = Luminescence Cell-Based Dose Retest to Confirm Inhibitors of Cancer Stem Cells. [Related pubchem assays (depositor defined):AID2717, AID2721]; format: functional; conditions: Homo sapiens
Prothrombin = Prothrombin (Homo sapiens, UniProt P00734); assay: Thrombin 1536 HTS Dose Response Confirmation. [Related pubchem assays: 1046 (Thrombin 1536 HTS; hits were confirmed in this assay)]; format: functional
[14] = target: T2, Ubiquitin-conjugating enzyme E2 N (Homo sapiens, UniProt P61088); format: functional;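 further: Dose-response confirmation in a TR-FRET assay detecting UBC13-driven polyubiquitin chain formation, inhibition measured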
T2 sequence (P61088 whole entry): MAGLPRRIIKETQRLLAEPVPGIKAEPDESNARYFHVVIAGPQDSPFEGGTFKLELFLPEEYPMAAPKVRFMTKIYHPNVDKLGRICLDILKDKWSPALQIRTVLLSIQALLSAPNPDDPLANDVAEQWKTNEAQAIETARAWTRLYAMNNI

[15] = target: T3, Microphthalmia-associated transcription factor (Homo sapiens, UniProt O75030); assay: reducers of TRPM1 reporter luminescence, concentration series – cell-based, SK-MEL-5, cherry-picked, set 3, MITF inhibitor project, dose response (AID 493073); format: functional;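 further: SK-MEL-5 melanoma cells with luciferase driven by the MITF target TRPM1 promoter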
T3 sequence (O75030 whole entry): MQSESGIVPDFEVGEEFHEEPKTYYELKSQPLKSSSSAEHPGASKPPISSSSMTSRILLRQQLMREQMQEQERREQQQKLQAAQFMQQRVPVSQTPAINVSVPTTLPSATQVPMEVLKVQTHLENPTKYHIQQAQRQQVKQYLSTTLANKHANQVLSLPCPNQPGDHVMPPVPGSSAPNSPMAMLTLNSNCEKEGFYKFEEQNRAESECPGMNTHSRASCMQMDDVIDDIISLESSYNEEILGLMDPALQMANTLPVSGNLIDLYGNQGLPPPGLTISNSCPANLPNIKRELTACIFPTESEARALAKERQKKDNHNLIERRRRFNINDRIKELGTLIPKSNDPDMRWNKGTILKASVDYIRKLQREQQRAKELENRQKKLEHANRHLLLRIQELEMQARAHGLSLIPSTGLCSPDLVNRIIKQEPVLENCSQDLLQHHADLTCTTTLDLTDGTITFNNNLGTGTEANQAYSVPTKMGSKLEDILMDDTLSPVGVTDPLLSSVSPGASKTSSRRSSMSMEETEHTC

[16] = viability of PTEN-deleted HCT116 cells – cell-based, HCT116 PTEN knockout, dose response (AID 1047); format: functional;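 further: HCT116 colon tumor cells with PTEN knocked out; cells exposed to compound for 60 hours before readout; potency for loss of cell viability measured by luminescence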
[17] = viability of HCT116 lacking mutant beta-catenin – cell-based, human colon tumor, dose response (AID 1045); format: functional;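 further: HCT116 colon tumor cells with beta catenin knocked out; cells exposed to compound for 60 hours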
[18] = target: T4, Replicative DNA helicase DnaB (Mycobacterium tuberculosis, UniProt P9WMR3); assay: DnaB intein splicing inhibitors, dose response, biochemical, cell-free fluorescence (AID 449749); format: functional
T4 sequence (P9WMR3 whole entry): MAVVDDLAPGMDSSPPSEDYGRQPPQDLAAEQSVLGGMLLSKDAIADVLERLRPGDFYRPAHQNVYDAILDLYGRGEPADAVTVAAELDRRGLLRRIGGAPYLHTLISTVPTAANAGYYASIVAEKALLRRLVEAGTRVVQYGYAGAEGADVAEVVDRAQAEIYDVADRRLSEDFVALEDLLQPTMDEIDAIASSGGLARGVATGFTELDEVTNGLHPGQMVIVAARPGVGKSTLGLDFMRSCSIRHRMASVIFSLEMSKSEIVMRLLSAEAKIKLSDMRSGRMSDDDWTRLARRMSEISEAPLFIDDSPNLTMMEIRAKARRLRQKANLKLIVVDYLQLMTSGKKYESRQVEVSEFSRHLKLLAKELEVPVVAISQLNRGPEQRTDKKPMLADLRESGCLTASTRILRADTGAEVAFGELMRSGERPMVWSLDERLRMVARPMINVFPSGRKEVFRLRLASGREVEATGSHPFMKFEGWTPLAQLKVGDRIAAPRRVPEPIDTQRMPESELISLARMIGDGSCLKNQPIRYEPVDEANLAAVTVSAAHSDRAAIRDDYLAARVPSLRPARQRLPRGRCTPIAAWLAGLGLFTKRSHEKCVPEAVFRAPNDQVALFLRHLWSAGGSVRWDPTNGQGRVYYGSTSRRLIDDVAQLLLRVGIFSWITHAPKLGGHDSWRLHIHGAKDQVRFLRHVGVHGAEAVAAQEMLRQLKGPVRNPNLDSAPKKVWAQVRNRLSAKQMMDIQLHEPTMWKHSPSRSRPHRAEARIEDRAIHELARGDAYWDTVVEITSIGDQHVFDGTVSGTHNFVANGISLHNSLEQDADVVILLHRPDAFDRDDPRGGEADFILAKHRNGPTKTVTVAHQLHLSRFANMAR

Protein RecA = target: T5, Protein RecA (Mycobacterium tuberculosis, UniProt P9WHJ3); assay: Fluorescence Cell-Free Homogeneous Dose Retest to Identify Inhibitors of RecA-Intein Splicing Activity. [Related pubchem assays (depositor defined):AID2097, AID2223, AID489010, AID492950]; format: functional
T5 sequence (P9WHJ3 whole entry): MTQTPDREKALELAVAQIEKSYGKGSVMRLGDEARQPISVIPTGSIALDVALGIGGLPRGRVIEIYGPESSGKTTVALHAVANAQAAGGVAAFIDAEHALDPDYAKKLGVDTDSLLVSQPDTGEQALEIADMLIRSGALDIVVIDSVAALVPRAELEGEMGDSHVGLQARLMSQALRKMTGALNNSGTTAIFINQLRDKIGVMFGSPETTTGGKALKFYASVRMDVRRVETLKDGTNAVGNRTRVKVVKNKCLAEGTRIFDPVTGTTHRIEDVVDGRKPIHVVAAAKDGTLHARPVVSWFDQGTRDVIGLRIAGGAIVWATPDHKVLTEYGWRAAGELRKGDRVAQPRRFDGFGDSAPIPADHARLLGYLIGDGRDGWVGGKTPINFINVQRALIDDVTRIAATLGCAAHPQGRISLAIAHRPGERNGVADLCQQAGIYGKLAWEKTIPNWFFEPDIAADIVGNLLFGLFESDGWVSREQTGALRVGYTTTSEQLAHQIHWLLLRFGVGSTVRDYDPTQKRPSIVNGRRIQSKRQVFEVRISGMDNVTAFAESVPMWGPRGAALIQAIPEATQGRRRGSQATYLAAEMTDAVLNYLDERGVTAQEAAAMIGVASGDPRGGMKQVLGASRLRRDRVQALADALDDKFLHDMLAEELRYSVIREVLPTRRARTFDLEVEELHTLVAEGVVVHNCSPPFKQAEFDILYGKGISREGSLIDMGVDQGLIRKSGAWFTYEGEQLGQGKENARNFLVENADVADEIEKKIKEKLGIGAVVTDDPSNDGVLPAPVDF

INS1 = assay: INS-1E survival protection against cytokine death – cell-based, luminescence, retest, dose response (AID 449756); format: functional; conditions: Rattus norvegicus;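 further: cell death triggered by IL-1 beta plus TNF-alpha plus IFN-gamma mixture; protective hits raise ATP signal compared with cytokine alone wells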

## Cc1cccc(N2CCN(C(=O)CSCc3c(C)noc3C)CC2)c1C
[1]
  EC50: 243 µM (active)
[2]
  AC50: 2.41 µM (active)
[3]
  AC50: 36.3 µM (active)
[4]
  AC50: 3.48 µM (active)

## COC(=O)[C@]1(C)CCC[C@@]2(C)C3CC[C@@]4(C)C[C@]3(CCC21)CC(=O)N4Cc1ccc(OC)cc1 (stereo partly specified)
[2]
  AC50: 8.16 µM (active)
[3]
  AC50: > 70 µM (inactive)
[4]
  AC50: 10.6 µM (active)

## Cc1ccc(C2C3CSCC=C3C(C#N)=C(N)C2(C#N)C#N)cc1 (stereo unspecified)
[5]
  EC50: > 160 µM (inactive)
[6]
  EC50: > 38 µM (not active)
[7]
  EC50: 17.4 µM (active)
[8]
  EC50: > 20 µM (not active)

## COc1ccccc1C(=O)N=C(NC(=O)c1ccccc1OC)Nc1nc2ccccc2o1
[7]
  EC50: 4.28 µM (active)
[9]
  EC50: 1.38 µM (active)
[10]
  CC50: 14 µM (active)
[8]
  EC50: 5.05 µM (active)
[11]
  EC50: > 60 µM (not active)

## CCCOC(=O)c1ccc(Oc2c(C)n[nH]c2-c2ccc(OCC)cc2O)cc1
[12]
  EC50: 11.1 µM (active)
[7]
  EC50: 11.9 µM (active)
[8]
  EC50: 7.31 µM (active)
Streptococcus
  EC50: > 150 µM (not active)
[13]
  AC50: 3.66 µM (active)

## COCCCNC(=O)/C(=C\c1cccn1C)NC(=O)c1cccs1
Prothrombin
  IC50: > 50 µM (inconclusive)

## O=C(NCC1CCCCC1)C1(CC2CC(c3cccc(Br)c3)=NO2)CCNCC1 (stereo unspecified)
[14]
  IC50: > 20 µM (inactive)
[15]
  AC50: 18.1 µM (active)

## O=C(c1cc2ccccc2[nH]1)N1CCOCC1
Prothrombin
  IC50: > 50 µM (not active)

## Cc1cc(C)n(S(=O)(=O)/C=C/c2ccccc2)n1
[7]
  EC50: 9.1 µM (active)
[8]
  EC50: 9.65 µM (active)
[1]
  EC50: 12.1 µM (active)

## C=C(CCC(=O)c1ccccc1)C(=O)c1ccccc1
[10]
  CC50: 17.7 µM (active)
[16]
  EC50: 9.9 µM (active)
Prothrombin
  IC50: > 50 µM (not active)
[17]
  EC50: 8.26 µM (active)
[1]
  EC50: 15 µM (active)

## O=C(Nc1ccc(Cc2ccncc2)cc1)c1ccco1
Prothrombin
  IC50: > 50 µM (not active)

## O=C(NC1CCCCC1)C1CCN(c2nnnn2-c2ccccc2)CC1
Prothrombin
  IC50: > 50 µM (not active)

## Cc1cc(NS(=O)(=O)c2ccc(NC(=O)CSc3nnc(-c4ccco4)n3N)cc2)nc(C)n1
Prothrombin
  IC50: > 50 µM (not active)

## O=C1C=C(NCc2ccc(Cl)c(Cl)c2)CC1
[7]
  EC50: > 20 µM (not active)
[8]
  EC50: > 20 µM (not active)

## c1ccc(-c2cc3nc(NCC4CC4)nc(NCC4CCCCC4)c3s2)cc1
[2]
  AC50: 2.67 µM (active)
[3]
  AC50: 9.15 µM (active)
[4]
  AC50: 3.12 µM (active)

## O=C(N/N=C/c1ccccc1[N+](=O)[O-])c1ccc2[nH]cnc2c1
Prothrombin
  IC50: 2.34 µM (active)

## O=C(N/N=C/c1ccc([N+](=O)[O-])o1)c1ccc(O)cc1 [NIFUROXAZIDE]
[15]
  AC50: 5.2 µM (active)
[18]
  AC50: > 380 µM (inactive)
Protein RecA
  EC50: > 380 µM (inactive)
INS1
  AC50: 5.18 µM (active)
